Data from patent US11707440B2 (priority 2017, dated 2023).
Where “and” joins values, the source holds several entries; their conditions need not be identical. Equal entries are not always repeated. Entries after “also recorded” stand apart in the source; their conditions may differ. Where two headings read alike, the source gives them in different places. Marks after values point to notes of the source that are not given here.

What was measured:
[1] = tested on: female Sprague-Dawley rats, PCG/RSC of the brain; experiment: Single dose neurotoxicity study, intranasal instillation; conditions: for Clinical observation: Abnormal respiration / Clinical observation: Ataxia / Clinical observation: Catalepsy / Clinical observation: Chromodacryorrhea / Clinical observation: Decreased general activity / Clinical observation: Decubitus / Clinical observation: Increased general activity / Clinical observation: Narrowed palpebral fissure / Clinical observation: Piloerection / Clinical observation: Salivation (out of normal) / Clinical observation: audible respiration / Clinical observation: bradypnoea: single dose intranasal
Procedure: Esketamine HCl was instilled intranasally at doses of 0 (vehicle), 36, 54 or 72 mg (expressed as esketamine base) to female rats on a single day. The dose levels were obtained by 2, 3 or 4 subsequent intranasal instillations, respectively, into both nostrils at a volume of 50 μL per nostril. At each instillation, the second nostril was dosed immediately after the first nostril. The interval between subsequent instillations into both nostrils was 5 minutes.
The vehicle control group received 4 subsequent intranasal instillations of the vehicle into both nostrils (50 μL per nostril) with 5-minute intervals.
The injection volume was 5 mL/kg.
The vehicle- and the 36 and 54 mg-dosed groups consisted of 24 animals per group, while the 72 mg-dosed and positive control groups involved 30 animals per group. Four satellite animals were added to the esketamine HCl-dosed groups of main study animals for toxicokinetic (TK) purposes. In these animals the plasma exposure to esketamine was measured on the day of dosing at various time points up to and including 24 hours after the first instillation.
Prior to the perfusion, rats were anesthetized with isoflurane. After injection of 0.1 ml heparin, the blood of the rat was flushed out with a physiological saline solution by intraarterial insertion of a needle in the abdominal aorta. Thereafter the rat was perfused with glutaraldehyde 3% in potassium phosphate 0.09M and 1.4% sucrose. Due to logistic constraints at maximum 30 animals could undergo the whole-body perfusion procedure on a given day. Therefore, a staggered start of treatment was applied to all 5 groups of main study animals. Consequently, subgroups of 4 main study animals of the vehicle- and 36 and 54 mg-dosed groups, and 5 main study animals of the 72 mg-dosed and positive control groups, were dosed on 6 consecutive days, respectively.
The vehicle control, positive control, and esketamine HCl-dosed animals were sacrificed at either 48 hours (i.e., the first 12 or 15 rats per group) or 96 hours after the dose administration time (i.e., the last 12 or 15 rats per group). The brain tissue of the vehicle control-, positive control- and esketamine HCl-treated rats were processed at the same time and handled in the same way in batches of 4 or 5 animals per group.
(§1) Furthermore, clinical observations were recorded for the esketamine HCl-dosed rats on the day of dosing at 0 till 5 minutes, 15 and 30 minutes, and at 1, 2, 4, 6 hours post-dose, at the end of the working day and at 24 hours after the last instillation in the single dose study and on the first day of dosing, after one week and towards the end of the dosing period in the repeated dose study. Body weight and body weight gain were measured daily. Food consumption was measured weekly in the repeated dose study.
(§2) On the day of terminal kill, a complete physical examination was performed on the rats in fasted condition and body weight was recorded. The surviving animals were anaesthetized by inhalation of an isoflurane (IsoFlo® Zoetis, Belgium)/oxygen mixture and killed by exsanguination via the carotid artery. […] All terminally killed rats or those killed pre-terminally were perfused with 4% paraformaldehyde in the single dose study and with glutaraldehyde 3% in potassium phosphate buffer 0.09 M with 1.4% sucrose in the repeated dose study.
(§3) Brain tissue was sampled and processed routinely. The trimmed and embedded tissue was sectioned and stained with hematoxylin-eosin (HE). Histoprocessing and staining were carried out in three batches of 4 animals per group (each batch thus containing 4 animals from vehicle control-, positive control- and the three esketamine HCl-treated groups). In the single dose study duplicate brain sections were stained with Fluoro-Jade (FJ).
All tissues showing gross abnormalities were examined macroscopically.

[2] = Maximum solubility of esketamine HCl; conditions: room temperature, pH 4.5; factor 1.15
Procedure: The clinical investigational product is an aqueous solution of the drug substance, esketamine hydrochloride (HCl). This formulation is administered intranasally to patients using a dual nasal spray device, which delivers one spray into each nostril. […] The formulation was stored at 37° C. for stability reasons until dosing.

[3] = tested on: female Sprague-Dawley rats, PCG/RSC of the brain; experiment: 14-day repeated dose neurotoxicity study, intranasal instillation; conditions: for Clinical observation: Abnormal respiration / Clinical observation: Ataxia / Clinical observation: Chromodacryorrhea / Clinical observation: Decreased general activity / Clinical observation: Decubitus / Clinical observation: Increased general activity / Clinical observation: Salivation (out of normal) / Clinical observation: audible respiration / Clinical observation: bradypnoea: 14 days
Procedure: Esketamine HCl was administered into each nostril of female rats at a volume of 50 μl per nostril either once, twice or thrice daily by intranasal instillation for 14 consecutive days at doses of 0 (vehicle), 18, 36 or 54 mg/day. At each instillation, the second nostril was dosed immediately after the first nostril. The interval between subsequent instillations into both nostrils was 5 minutes when dosed 2 or 3 times per day.
The vehicle control group received 3 subsequent intranasal instillations of the vehicle into both nostrils (50 μL per nostril) with 5-minute intervals for 14 consecutive days.
The positive control group received a single subcutaneous injection of (+)MK-801 at 48 hours prior to the necropsy of the vehicle control and esketamine HCl-treated animals.
Each group of main study animals consisted of 12 female rats. Four satellite animals were added to the esketamine HCl-dosed groups of main study animals for TK purposes. The plasma exposure to esketamine was measured in these animals on the first and the last day of dosing at various time points up to and including 24 hours after the first instillation.
Due to logistic constraints associated with the whole body perfusion procedure of the animals at necropsy, a staggered start was applied to the study. Consequently, all 5 groups of main study animals were divided into three subgroups of 4 animals each. For each of these subgroups treatment started on a different day. The perfusion procedure is the is the same as described for the single dose study.
All vehicle- and esketamine HCl-treated animals were sacrificed at 48 hours after the last instillation. […] The brain tissue of the vehicle control-, positive control- and esketamine HCl-treated rats were processed at the same time and handled in the same way in batches of 4 animals per group.
as §1, §2, §3
All tissues showing gross abnormalities were examined […]. Histopathological examination was performed on 7 levels of brain tissue according to Bolon (2013. Toxicol. Pathol. 41(7), 1028-1048) from the vehicle control-, positive control-, and high dose esketamine HCl-treated groups in the single dose study, and in all groups in the repeated dose study.

NMDA receptor = conditions: cited from earlier work
[4] = for Stock solution stability: stock solutions
Text: This example provides an LC-MS/MS method for the determination of ketamine and norketamine in sodium heparin human plasma using ketamine-d4 and norketamine-d4 as the respective internal standards (IS).

[5] = tested on: adult female Sprague Dawley rats, PCG/RSC; conditions: 3 hours after a single intraperitoneal injection (Jevtovic-Todorovic 2000); cited from earlier work

Compound: CN[C@]1(c2ccccc2Cl)CCCCC1=O.Cl [esketamine HCl, (S)-2-(2-chlorophenyl)-2-(methylamino)cyclohexanone hydrochloride]
- Duration of severely decreased activity with decubitus, bradypnea, ptosis and catalepsy (anesthesia) ([1]; 36 mg): 15 to 30 min
- Clinical observation: Abnormal respiration ([1]; 36 mg): 22/24***
- Clinical observation: Ataxia ([1]; 36 mg): 24/24***
- Clinical observation: Catalepsy ([1]; 36 mg): 20/24***
- Clinical observation: Chromodacryorrhea ([1]; 36 mg): 0/24
- Clinical observation: Decreased general activity ([1]; 36 mg): 23/24***
- Clinical observation: Decubitus ([1]; 36 mg): 23/24***
- Clinical observation: Increased general activity ([1]; 36 mg): 24/24***
- Clinical observation: Narrowed palpebral fissure ([1]; 36 mg): 7/24**
- Clinical observation: Piloerection ([1]; 36 mg): 0/24
- Clinical observation: Salivation (out of normal) ([1]; 36 mg): 23/24***
- Clinical observation: audible respiration ([1]; 36 mg): 10/24***
- Clinical observation: bradypnoea ([1]; 36 mg): 22/24***
- Clinical observation: Abnormal respiration ([1]; 54 mg): 22/24***
- Clinical observation: Ataxia ([1]; 54 mg): 24/24***
- Clinical observation: Catalepsy ([1]; 54 mg): 23/24***
- Clinical observation: Chromodacryorrhea ([1]; 54 mg): 0/24
- Clinical observation: Decreased general activity ([1]; 54 mg): 23/24***
- Clinical observation: Decubitus ([1]; 54 mg): 23/24***
- Clinical observation: Increased general activity ([1]; 54 mg): 24/24***
- Clinical observation: Narrowed palpebral fissure ([1]; 54 mg): 10/24***
- Clinical observation: Piloerection ([1]; 54 mg): 0/24
- Clinical observation: Salivation (out of normal) ([1]; 54 mg): 24/24***
- Clinical observation: audible respiration ([1]; 54 mg): 3/24
- Clinical observation: bradypnoea ([1]; 54 mg): 21/24***
- Duration of ataxia (and hyperactivity) after the decrease in activity subsided ([1]; 54 mg, hydrochloride): 1.5 to 3 h and 1 to 3 h
- Duration of severely decreased activity with decubitus, bradypnea, ptosis and catalepsy (anesthesia) ([1]; 54 mg, hydrochloride): 30 minutes to one hour and 30 minutes to an hour
- Duration of ataxia (and hyperactivity) after the decrease in activity subsided ([1]; 72 mg): up to 3 hours or longer
- Clinical observation: Abnormal respiration ([1]; 72 mg): 30/30***
- Clinical observation: Catalepsy ([1]; 72 mg): 30/30***
- Clinical observation: Chromodacryorrhea ([1]; 72 mg): 0/30
- Clinical observation: Decreased general activity ([1]; 72 mg): 30/30***
- Clinical observation: Decubitus ([1]; 72 mg): 30/30***
- Clinical observation: Increased general activity ([1]; 72 mg): 29/30***
- Clinical observation: Narrowed palpebral fissure ([1]; 72 mg): 22/30***
- Clinical observation: Piloerection ([1]; 72 mg): 0/30
- Clinical observation: Salivation (out of normal) ([1]; 72 mg): 29/30***
- Clinical observation: audible respiration ([1]; 72 mg): 2/30
- Clinical observation: bradypnoea ([1]; 72 mg): 30/30***
- Mortality ([1]; single dose 72 mg, within 30 minutes after 4 instillations): two main study animals and two satellite TK animals died
- Mortality ([1]; single dose up to 54 mg): No test article related mortality
- Brain histopathology (neuronal necrosis, Olney lesions) ([1]; single dose up to 72 mg, 48 and 96 hours post-dose, hydrochloride): no morphological evidence of neuronal degeneration; also recorded: histopathological lesions were absent; also recorded: No signs of neuronal necrosis; also recorded: no neuropathological lesions were observed
- Maximum solubility expressed as base [2]: 180 mg esketamine base/mL
- Clinical observation: Abnormal respiration ([3]; 18 mg/day intranasal): 2/12
- Clinical observation: Ataxia ([3]; 18 mg/day intranasal): 12/12***
- Clinical observation: Chromodacryorrhea ([3]; 18 mg/day intranasal): 0/12
- Clinical observation: Decreased general activity ([3]; 18 mg/day intranasal): 5/12
- Clinical observation: Decubitus ([3]; 18 mg/day intranasal): 0/12
- Clinical observation: Increased general activity ([3]; 18 mg/day intranasal): 12/12***
- Clinical observation: Salivation (out of normal) ([3]; 18 mg/day intranasal): 12/12***
- Clinical observation: audible respiration ([3]; 18 mg/day intranasal): 2/12
- Clinical observation: bradypnoea ([3]; 18 mg/day intranasal): 0/12
- Clinical observation: Abnormal respiration ([3]; 36 mg/day intranasal): 11/12***
- Clinical observation: Ataxia ([3]; 36 mg/day intranasal): 12/12***
- Clinical observation: Chromodacryorrhea ([3]; 36 mg/day intranasal): 0/12
- Clinical observation: Decreased general activity ([3]; 36 mg/day intranasal): 12/12***
- Clinical observation: Decubitus ([3]; 36 mg/day intranasal): 2/12
- Clinical observation: Increased general activity ([3]; 36 mg/day intranasal): 12/12***
- Clinical observation: Salivation (out of normal) ([3]; 36 mg/day intranasal): 12/12***
- Clinical observation: audible respiration ([3]; 36 mg/day intranasal): 6/12**
- Clinical observation: bradypnoea ([3]; 36 mg/day intranasal): 11/12***
- Clinical observation: Abnormal respiration ([3]; 54 mg/day intranasal): 12/12***
- Clinical observation: Ataxia ([3]; 54 mg/day intranasal): 12/12***
- Clinical observation: Chromodacryorrhea ([3]; 54 mg/day intranasal): 0/12
- Clinical observation: Decreased general activity ([3]; 54 mg/day intranasal): 12/12***
- Clinical observation: Decubitus ([3]; 54 mg/day intranasal): 8/12***
- Clinical observation: Increased general activity ([3]; 54 mg/day intranasal): 12/12***
- Clinical observation: Salivation (out of normal) ([3]; 54 mg/day intranasal): 12/12***
- Clinical observation: audible respiration ([3]; 54 mg/day intranasal): 6/12**
- Clinical observation: bradypnoea ([3]; 54 mg/day intranasal): 12/12***
- Mortality ([3]; up to 54 mg/day for 14 days): No test article related mortality occurred
- Brain histopathology (neuronal necrosis, Olney lesions) ([3]; up to 54 mg/day, 48 hours after the last instillation, hydrochloride): no morphological evidence of neuronal degeneration; also recorded: no histopathological lesions were noted; also recorded: No histopathological lesions were found; also recorded: absence of neuronal necrosis

Compound: (+)MK-801 maleate
- Potency of the (+)-enantiomer relative to the (−)-enantiomer (NMDA receptor): 7 times

Compound: CNC1(c2ccccc2Cl)CCCCC1=O (racemic) [ketamine, reference compound]
- QC sample freeze/thaw stability ([4]; freeze (−20° C.)/thaw (ice-water bath)): 3 freeze (−20° C.)/thaw (ice-water bath) cycles
- QC sample freeze/thaw stability ([4]; freeze (−20° C.)/thaw (room temperature)): 3 freeze (−20° C.)/thaw (room temperature) cycles
- QC sample bench-top stability ([4]; human plasma, room temperature): 68.5 hours at room temp
- QC sample long-term storage stability ([4]; human plasma, −20° C.): 1552 days at −20 °C
- Processed sample stability ([4]; room temperature): 146.5 hours at room temperature
- Whole Blood Stability ([4]; room temperature and ice-water bath (0-4° C.)): 120 minutes at room temperature and in an ice-water bath
- Stock solution stability (spike solutions) ([4]; spike solutions, −20° C.): 610 days at −20 °C for ketamine/norketamine spike solutions
- Stock solution stability ([4]; room temperature under white light): 6 h
- Stock solution stability ([4]; −20° C.): 15100 h
- ED50-value for the induction of neuronal vacuolation in the PCG/RSC [5]: 47.5 mg/kg body weight
